We go through seven compounds from ChEMBL document CHEMBL1138776, “Identification and characterization of small molecule inhibitors of the calcium-dependent S100B-p53 tumor suppressor interaction” (J Med Chem, 2004).

Some results are limits rather than exact numbers.

The nature of assay [1]: Concentration required for 50% growth inhibition of primary malignant melanoma C8146A cell lines. The assay is classed as functional, cell-based.
The next assay deals with T1, Protein S100-B (Homo sapiens, UniProt P04271).
T1 sequence (P04271 whole entry): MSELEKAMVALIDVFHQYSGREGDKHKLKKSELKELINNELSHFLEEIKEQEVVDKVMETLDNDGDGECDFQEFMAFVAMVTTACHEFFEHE
Briefly: Binding to holo-S100B protein.

What is called IC50 is the point on the concentration scale where inhibition reaches its midpoint. Higher therefore signals lower potency. As usually defined, the Kd is the concentration at which binding is half-saturated. A lower Kd goes with higher affinity. `N=C(N)NC(=N)Nc1cccc(Cl)c1Cl` registered an IC50 in assay [1] of 8 µM. For the same compound, the affinity at Protein S100-B, expressed as Kd, was 2 µM.

On to `Cc1cc(C)c(N2C(=O)c3ccc(C(=O)Nc4cc(C(=O)O)cc(C(=O)O)c4)cc3C2=O)c(C)c1`, for which it took 44 µM to reach half-maximal inhibition in assay [1] (IC50). Moreover, the Kd at Protein S100-B is 120 µM.

For `N=C(N)NC(=N)Nc1ccc(Cl)cc1C(=O)c1ccccc1`, in assay [1], the half-inhibitory concentration (IC50) came to 12 µM. For the same compound, the Kd on Protein S100-B was 4.5 µM.

With `CC(C)(C)NC(=O)c1cccc(N2C(=O)c3ccc(C(=O)O)cc3C2=O)c1`, the IC50 in assay [1] is greater than 100 µM. On Protein S100-B, this compound displayed a Kd of 8.1 µM.

As for `O=C(O)c1cc(N/N=C/c2ccc(-c3ccc(Cl)c(C(=O)O)c3)o2)ccc1Cl`, it took 49 µM to reach half-maximal inhibition in assay [1] (IC50). This compound yielded a Kd at Protein S100-B of 18.3 µM.

`Cc1c(NS(=O)(=O)c2ccc(NC(=O)CCC(=O)O)cc2)c(=O)n(-c2ccccc2)n1C` registered an IC50 in assay [1] greater than 100 µM. This compound had a Kd at Protein S100-B of 4.5 µM.

In assay [1], `N=C(N)c1ccc(OCCCCCOc2ccc(C(=N)N)cc2)cc1` [PENTAMIDINE] came in with an IC50 of 1.2 µM. On Protein S100-B, this compound displayed a Kd of 1 µM.
